The supplement of paper PMC7840683
Structures can show the parent of a compound that is named as a salt. ± gives the standard deviation of the averaged measurements.

Tested on: HepaRG
Experiment: LDH release cytotoxicity, % of total lysis control; higher = more cytotoxic
Conditions: 48 h
In short: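 Single-lot HepaRG cells in collagen I-coated 96-well plates were treated for 48 h in serum-free induction medium containing 0.5% DMSO with test chemicals in eight-point half-log series up to 100 µM. For total lysis, wells received 0.1% Triton X. LDH in 50 µL spent medium was assayed by resorufin fluorescence with CytoTox-ONE. Percent cytotoxicity was normalized to the on-plate vehicle and total lysis controls, with duplicates averaged.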

Cc1ccc([N+](=O)[O-])cc1 [4-Nitrotoluene]
Conditions | LDH release cytotoxicity [%]
0.03162 µM | -0.445 ± 0.2
0.1 µM | -1.19 ± 1.1
0.3162278 µM | -0.0775 ± 0.88
1 µM | -0.642 ± 0.3
3.16228 µM | -0.56 ± 0.64
10 µM | -0.236 ± 0.032
31.6228 µM | -0.713 ± 0.035
100 µM | 1.62 ± 0.18

C[Si]1(C)O[Si](C)(C)O[Si](C)(C)O[Si](C)(C)O1 [Octamethylcyclotetrasiloxane]
Conditions | LDH release cytotoxicity [%]
0.03162 µM | -1.66 ± 0.14
0.1 µM | -2.19 ± 2.6
0.3162278 µM | -0.981 ± 0.89
1 µM | -1.15 ± 0.56
3.16228 µM | -1.27 ± 0.5
10 µM | -0.835 ± 0.65
31.6228 µM | -1.36 ± 1.4
100 µM | 1.7 ± 1.9

OCCC(F)(F)C(F)(F)C(F)(F)C(F)(F)C(F)(F)C(F)(F)C(F)(F)C(F)(F)F [8:2 Fluorotelomer alcohol]
Conditions | LDH release cytotoxicity [%]
0.031623 µM | -0.581 ± 1.7
0.1 µM | -0.0838 ± 1.2
0.316228 µM | -1.41 ± 0.61
1 µM | -2.22 ± 0.18
3.16228 µM | -2.23 ± 0.56
10 µM | -1.35 ± 0.57
31.6228 µM | -1.87 ± 0.66
100 µM | 0.405 ± 2.2

NC(=O)N(O)C1C=CC(Oc2cccc(Oc3ccc(F)cc3)c2)C1 (stereo not drawn)
Conditions | LDH release cytotoxicity [%]
0.03162 µM | -0.313 ± 0.089
0.1 µM | -0.862 ± 0.21
0.3162278 µM | -1.12 ± 0.51
1 µM | -0.265 ± 0.5
3.16228 µM | -0.557 ± 0.086
10 µM | -1.09 ± 0.79
31.6228 µM | 1.56 ± 0.69
100 µM | 19.5 ± 2.4

CCOc1cc(Oc2ccc(C(F)(F)F)cc2Cl)ccc1[N+](=O)[O-] [Oxyfluorfen]
Conditions | LDH release cytotoxicity [%]
0.03162 µM | -0.516 ± 0.33
0.1 µM | 0.229 ± 1.1
0.3162278 µM | -0.848 ± 0.08
1 µM | -0.859 ± 0.59
3.16228 µM | -0.159 ± 0.1
10 µM | -0.932 ± 0.39
31.6228 µM | -2.53 ± 0.26
100 µM | -1.47 ± 0.42

Cc1ccc(S(=O)(=O)O)cc1C [Sodium xylenesulfonate]
Conditions | LDH release cytotoxicity [%]
0.03162 µM | -0.646 ± 0.56
0.1 µM | -1.44 ± 0.33
0.3162278 µM | -1.14 ± 1.1
1 µM | -1.21 ± 0.25
3.16228 µM | -1.1 ± 0.39
10 µM | -1.23 ± 0.36
31.6228 µM | -1.25 ± 0.27
100 µM | 1.23 ± 0.65

O=c1[nH]c2ccc(S(=O)CCN3CCC(Cc4ccc(F)cc4)CC3)cc2o1 (stereo not drawn) [Besonprodil]
Conditions | LDH release cytotoxicity [%]
0.03162 µM | -2.69 ± 1.3
0.1 µM | -1.42 ± 0.9
0.3162278 µM | -1.87 ± 0.18
1 µM | -0.983 ± 0.15
3.16228 µM | -0.767 ± 0.42
10 µM | -1.16 ± 0.83
31.6228 µM | -1.7 ± 0.064
100 µM | 2.32 ± 2.9

O=C(O)c1ccccc1C(c1ccc(O)cc1)c1ccc(O)cc1 [Phenolphthalin]
Conditions | LDH release cytotoxicity [%]
0.03162 µM | -1.69 ± 0.25
0.1 µM | -1.91 ± 1.3
0.3162278 µM | -2.15 ± 0.91
1 µM | -2.6 ± 0.41
3.16228 µM | -1.53 ± 0.2
10 µM | -1.03 ± 0.2
31.6228 µM | -1.15 ± 0.7
100 µM | 0.0929 ± 0.98

O=C(O)c1ccccc1-n1cc(C(=O)O)c(=O)c2cc(Nc3c(F)cc(F)cc3Cl)c(Cl)cc21 [AVE9423]
Conditions | LDH release cytotoxicity [%]
0.03162 µM | -1.33 ± 0.48
0.1 µM | -1.38 ± 0.094
0.3162278 µM | -2.06 ± 0.7
1 µM | -2.38 ± 0.63
3.16228 µM | -2.31 ± 0.53
10 µM | -2.38 ± 0.67
31.6228 µM | -1.42 ± 1.4
100 µM | -1.52 ± 0.52

Cc1oc2c(NC(=O)c3c(Cl)cccc3Cl)cccc2c1C(C)(C)O
Conditions | LDH release cytotoxicity [%]
0.03162 µM | -1.37 ± 0.53
0.1 µM | -0.99 ± 1.4
0.3162278 µM | -1.56 ± 1.6
1 µM | -1.94 ± 1.6
3.16228 µM | -2.03 ± 0.99
10 µM | -0.5 ± 0.33
31.6228 µM | 13.1 ± 1.4
100 µM | 33.7 ± 0.42

c1ccc(-c2ccccc2)cc1 [Biphenyl]
Conditions | LDH release cytotoxicity [%]
0.03162 µM | -3.64 ± 0.49
0.1 µM | -2.69 ± 0.98
0.3162278 µM | -2.88 ± 0.12
1 µM | -2.22 ± 0.45
3.16228 µM | -2.07 ± 0.53
10 µM | -1.35 ± 0.15
31.6228 µM | -1.49 ± 0.43
100 µM | 0.572 ± 0.68

CCOc1ccc2c(c1)C(C)=CC(C)(C)N2 [Ethoxyquin]
Conditions | LDH release cytotoxicity [%]
0.03162 µM | -1.26 ± 0.72
0.1 µM | -0.577 ± 0.97
0.3162278 µM | -1.06 ± 0.6
1 µM | -1.45 ± 1.1
3.16228 µM | -1.65 ± 0.13
10 µM | -1.77 ± 0.58
31.6228 µM | -1.67 ± 0.43
100 µM | -0.112 ± 2.2

O=S(=O)(O)C(F)(F)C(F)(F)C(F)(F)C(F)(F)C(F)(F)C(F)(F)F [Potassium perfluorohexanesulfonate]
Conditions | LDH release cytotoxicity [%]
0.03162 µM | -0.914 ± 0.81
0.1 µM | -1.15 ± 0.31
0.3162278 µM | -1.06 ± 1.8
1 µM | -1.98 ± 1.6
3.16228 µM | -1.95 ± 1.2
10 µM | -0.831 ± 1.7
31.6228 µM | -1.52 ± 1
100 µM | -0.438 ± 1.6

CCCCCCCCOC(=O)c1ccc(C(=O)OCCCCCCCC)c(C(=O)OCCCCCCCC)c1 [Tri-n-octyl trimellitate]
Conditions | LDH release cytotoxicity [%]
0.031623 µM | -2.2 ± 0.31
0.1 µM | -3.02 ± 1.1
0.316228 µM | -2.45 ± 0.77
1 µM | -1.71 ± 0.9
3.16228 µM | -2.25 ± 0.55
10 µM | -2.21 ± 0.31
31.6228 µM | -0.9931 ± 0.0017
100 µM | 1.54 ± 0.94

CSc1ccc(Oc2ccc(S(N)(=O)=O)cc2CN(C)C)cc1C
Conditions | LDH release cytotoxicity [%]
0.03162 µM | -1.53 ± 0.56
0.1 µM | -2.12 ± 0.38
0.3162278 µM | -3.24 ± 1
1 µM | -3.17 ± 0.95
3.16228 µM | -2.65 ± 0.17
10 µM | -1.44 ± 0.31
31.6228 µM | -1.38 ± 0.35
100 µM | 13.7 ± 1.8

COc1cc(C=O)ccc1O [4-Hydroxy-3-methoxybenzaldehyde]
Conditions | LDH release cytotoxicity [%]
0.031623 µM | -0.0885 ± 1.4
0.1 µM | -2.63 ± 0.42
0.316228 µM | -3.71 ± 0.71
1 µM | -4.06 ± 0.31
3.16228 µM | -3.91 ± 0.7
10 µM | -3.69 ± 0.35
31.6228 µM | -3.12 ± 0.07
100 µM | 0.307 ± 0.14

OCCC(F)(F)C(F)(F)C(F)(F)C(F)(F)C(F)(F)C(F)(F)F [6:2 Fluorotelomer alcohol]
Conditions | LDH release cytotoxicity [%]
0.03162 µM | -0.419 ± 0.26
0.1 µM | -1.392 ± 0.012
0.3162278 µM | -1.67 ± 0.41
1 µM | -2.28 ± 0.32
3.16228 µM | -1.52 ± 0.59
10 µM | -1.12 ± 1.1
31.6228 µM | -1.141 ± 0.005
100 µM | -0.148 ± 0.73

Cc1oc(-c2ccccc2)nc1CCOc1cccc2c1ccn2CCC(=O)O
Conditions | LDH release cytotoxicity [%]
0.03162 µM | -0.496 ± 0.49
0.1 µM | -1.56 ± 0.14
0.3162278 µM | -1.37 ± 1.4
1 µM | -1.71 ± 0.068
3.16228 µM | -1.03 ± 0.61
10 µM | -0.899 ± 0.13
31.6228 µM | -0.577 ± 0.44
100 µM | 45.3 ± 5.2

COC(=O)CC(=O)OC [Dimethyl malonate]
Conditions | LDH release cytotoxicity [%]
0.03162 µM | -0.603 ± 0.72
0.1 µM | -0.89 ± 0.63
0.3162278 µM | -0.395 ± 0.94
1 µM | -0.704 ± 0.96
3.16228 µM | -0.831 ± 0.86
10 µM | -0.0631 ± 0.27
31.6228 µM | 0.8 ± 0.35
100 µM | 1.4 ± 0.021

CC(C)(C)c1cc(C(C)(C)C)c(O)c(C(C)(C)C)c1 [2,4,6-Tris(tert-butyl)phenol]
Conditions | LDH release cytotoxicity [%]
0.03162 µM | -0.34 ± 0.36
0.1 µM | -0.143 ± 0.55
0.3162278 µM | -0.16 ± 0.35
1 µM | -0.404 ± 0.24
3.16228 µM | -0.476 ± 0.26
10 µM | 0.204 ± 1.6
31.6228 µM | -0.0327 ± 1.8
100 µM | 0.75 ± 0.75

CCCCC(CC)COC(=O)c1ccccc1C(=O)O (stereo not drawn) [MEHP]
Conditions | LDH release cytotoxicity [%]
0.0320971 µM | -1.24 ± 1.4
0.1015 µM | -1.27 ± 0.27
0.320971 µM | -1.13 ± 1.5
1.015 µM | -1.47 ± 1.3
3.2097118 µM | -1.28 ± 0.83
10.15 µM | -0.944 ± 0.92
32.0971 µM | -1.07 ± 0.41
101.5 µM | 0.594 ± 0.91

CNC(=O)Oc1cccc2c1OC(C)(C)C2 [Carbofuran]
Conditions | LDH release cytotoxicity [%]
0.03162 µM | -0.0403 ± 0.34
0.1 µM | -0.693 ± 0.36
0.3162278 µM | -0.49 ± 1.3
1 µM | -0.23 ± 0.93
3.16228 µM | -0.812 ± 0.2
10 µM | -1.07 ± 0.049
31.6228 µM | -0.52 ± 0.15
100 µM | 0.343 ± 0.33

Cc1nc[nH]c1CC1CCc2c(C)c3ccccc3n2C1=O (stereo not drawn) [Fabesetron hydrochloride]
Conditions | LDH release cytotoxicity [%]
0.0281443 µM | -1.11 ± 1.1
0.089 µM | -1.43 ± 0.83
0.281443 µM | -1.19 ± 0.51
0.89 µM | -1.4 ± 0.97
2.81443 µM | -1.38 ± 1.2
8.9 µM | -0.0311 ± 2
28.144271 µM | 43.7 ± 4.9
89 µM | 76.2 ± 2.1

C=CC(=C)CCC=C(C)C [Myrcene]
Conditions | LDH release cytotoxicity [%]
0.031623 µM | -1.27 ± 1.6
0.1 µM | -2.39 ± 1
0.316228 µM | -2.35 ± 0.3
1 µM | -1.45 ± 0.82
3.16228 µM | -1.74 ± 1.4
10 µM | -1.93 ± 0.083
31.6228 µM | -1.8 ± 0.49
100 µM | 0.279 ± 0.4

NNC(=O)c1ccncc1 [Isoniazid]
Conditions | LDH release cytotoxicity [%]
0.013914 µM | -1.4 ± 0.98
0.044 µM | -0.0891 ± 1.3
0.13914 µM | -1.34 ± 0.49
0.44 µM | -1.05 ± 1.1
1.3914 µM | -1.62 ± 0.34
4.4 µM | -0.682 ± 2
13.914 µM | -0.843 ± 0.11
44 µM | -0.0914 ± 0.33

O=C(O)C1(C(=O)Nc2ccc(Cl)cc2Cl)CC1 [Cyclanilide]
Conditions | LDH release cytotoxicity [%]
0.03162 µM | 0.835 ± 0.011
0.1 µM | -0.444 ± 1.4
0.3162278 µM | -0.309 ± 0.12
1 µM | -1.03 ± 0.15
3.16228 µM | -0.632 ± 1.9
10 µM | 0.531 ± 0.17
31.6228 µM | 2.66 ± 0.46
100 µM | 4.54 ± 2
